The source of these data is patent US10016438B2, “Bicyclic heterocycles as FGFR4 inhibitors” (Incyte Corporation, priority 2015, dated 2018).

Molecules are shown by their SMILES.

A word on the IC50: it is the concentration that inhibits the measured activity by half.

The target of one test is FGFR1 (Homo sapiens (Human), UniProt P11362). Nature of the test: FGFR Enzymatic Assay (FRET peptide phosphorylation), FGFR1. The following applies: read-out: FGFR1 IC50; pre-incubated for 4 hours.
Another test addresses FGFR2 (Homo sapiens (Human), UniProt P21802). The test can be described thus: FGFR Enzymatic Assay (FRET peptide phosphorylation), FGFR2. Particulars: read-out: FGFR2 IC50; pre-incubated for 4 hours.
The target of a further test is FGFR3 (Homo sapiens (Human), UniProt P22607). Nature of the test: FGFR Enzymatic Assay (FRET peptide phosphorylation), FGFR3. Particulars: read-out: FGFR3 IC50; pre-incubated for 4 hours.
The target of a further test is FGFR4 (Homo sapiens (Human), UniProt P22455). The test can be described thus: FGFR Enzymatic Assay (FRET peptide phosphorylation), FGFR4. Particulars: pre-incubated for 4 hours; for FGFR1/FGFR4 / FGFR2/FGFR4 / FGFR3/FGFR4: IC50 ratio showing FGFR4 selectivity.
Chain of FGFR4 (P22455 22-802): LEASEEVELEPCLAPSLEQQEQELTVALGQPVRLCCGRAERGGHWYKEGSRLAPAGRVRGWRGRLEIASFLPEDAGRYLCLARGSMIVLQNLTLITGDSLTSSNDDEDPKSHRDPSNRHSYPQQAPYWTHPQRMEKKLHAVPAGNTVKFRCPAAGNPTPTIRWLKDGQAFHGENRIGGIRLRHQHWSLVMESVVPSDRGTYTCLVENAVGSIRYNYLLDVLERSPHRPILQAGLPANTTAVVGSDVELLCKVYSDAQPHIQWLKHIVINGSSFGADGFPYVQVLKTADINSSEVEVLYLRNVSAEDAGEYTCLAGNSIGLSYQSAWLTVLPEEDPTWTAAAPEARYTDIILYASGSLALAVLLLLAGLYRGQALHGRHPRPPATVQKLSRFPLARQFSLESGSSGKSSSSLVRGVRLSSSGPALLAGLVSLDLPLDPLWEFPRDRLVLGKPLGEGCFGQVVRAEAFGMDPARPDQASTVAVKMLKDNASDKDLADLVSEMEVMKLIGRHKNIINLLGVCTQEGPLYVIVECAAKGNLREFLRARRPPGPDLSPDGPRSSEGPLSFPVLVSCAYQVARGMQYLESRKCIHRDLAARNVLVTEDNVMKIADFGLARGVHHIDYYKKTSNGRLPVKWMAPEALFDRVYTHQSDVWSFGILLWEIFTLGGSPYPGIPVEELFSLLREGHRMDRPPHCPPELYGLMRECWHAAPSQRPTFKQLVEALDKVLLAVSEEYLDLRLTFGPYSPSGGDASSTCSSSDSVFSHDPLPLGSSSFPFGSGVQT

Chain of FGFR3 (P22607 23-806): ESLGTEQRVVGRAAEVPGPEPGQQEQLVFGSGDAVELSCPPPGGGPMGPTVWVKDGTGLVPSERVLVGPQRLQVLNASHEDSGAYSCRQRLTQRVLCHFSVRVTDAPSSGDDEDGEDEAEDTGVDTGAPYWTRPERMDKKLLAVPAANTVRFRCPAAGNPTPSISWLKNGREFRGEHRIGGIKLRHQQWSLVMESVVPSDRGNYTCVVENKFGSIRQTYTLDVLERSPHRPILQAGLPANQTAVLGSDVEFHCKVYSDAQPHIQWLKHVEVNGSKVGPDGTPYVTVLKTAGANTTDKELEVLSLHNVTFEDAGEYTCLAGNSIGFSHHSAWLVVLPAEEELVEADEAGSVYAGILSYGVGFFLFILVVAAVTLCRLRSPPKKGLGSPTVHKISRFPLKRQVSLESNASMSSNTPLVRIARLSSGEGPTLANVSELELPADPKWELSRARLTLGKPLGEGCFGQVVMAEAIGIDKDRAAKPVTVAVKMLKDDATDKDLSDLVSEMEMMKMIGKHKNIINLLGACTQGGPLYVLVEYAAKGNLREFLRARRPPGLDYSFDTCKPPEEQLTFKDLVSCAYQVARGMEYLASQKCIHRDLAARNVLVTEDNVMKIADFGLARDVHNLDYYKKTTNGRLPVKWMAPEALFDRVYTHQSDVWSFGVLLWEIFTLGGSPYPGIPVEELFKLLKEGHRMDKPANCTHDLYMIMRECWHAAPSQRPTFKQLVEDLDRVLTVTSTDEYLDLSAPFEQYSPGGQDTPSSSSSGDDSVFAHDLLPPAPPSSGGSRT
Chain of FGFR1 (P11362 22-822): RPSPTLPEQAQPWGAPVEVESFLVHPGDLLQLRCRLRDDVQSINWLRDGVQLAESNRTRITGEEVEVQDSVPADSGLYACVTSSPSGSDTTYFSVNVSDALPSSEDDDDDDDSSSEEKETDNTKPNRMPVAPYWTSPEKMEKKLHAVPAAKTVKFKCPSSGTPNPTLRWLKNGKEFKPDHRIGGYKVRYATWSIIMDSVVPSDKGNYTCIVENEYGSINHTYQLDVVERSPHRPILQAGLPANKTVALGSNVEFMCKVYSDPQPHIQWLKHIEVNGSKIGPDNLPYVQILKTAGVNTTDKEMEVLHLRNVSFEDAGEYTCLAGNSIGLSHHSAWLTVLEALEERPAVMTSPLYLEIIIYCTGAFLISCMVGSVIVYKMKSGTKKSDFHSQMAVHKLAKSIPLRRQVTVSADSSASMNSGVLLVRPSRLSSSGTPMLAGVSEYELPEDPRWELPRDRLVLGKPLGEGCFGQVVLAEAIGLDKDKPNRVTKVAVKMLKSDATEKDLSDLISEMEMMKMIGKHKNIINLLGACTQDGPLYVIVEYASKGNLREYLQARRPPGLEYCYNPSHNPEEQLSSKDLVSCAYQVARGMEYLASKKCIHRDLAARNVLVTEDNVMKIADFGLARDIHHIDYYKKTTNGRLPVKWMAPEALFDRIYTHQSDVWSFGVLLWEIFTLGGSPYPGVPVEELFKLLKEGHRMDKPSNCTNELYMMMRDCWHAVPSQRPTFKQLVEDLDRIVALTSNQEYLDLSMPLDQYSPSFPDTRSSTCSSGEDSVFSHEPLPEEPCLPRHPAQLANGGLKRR
Chain of FGFR2 (P21802 22-821): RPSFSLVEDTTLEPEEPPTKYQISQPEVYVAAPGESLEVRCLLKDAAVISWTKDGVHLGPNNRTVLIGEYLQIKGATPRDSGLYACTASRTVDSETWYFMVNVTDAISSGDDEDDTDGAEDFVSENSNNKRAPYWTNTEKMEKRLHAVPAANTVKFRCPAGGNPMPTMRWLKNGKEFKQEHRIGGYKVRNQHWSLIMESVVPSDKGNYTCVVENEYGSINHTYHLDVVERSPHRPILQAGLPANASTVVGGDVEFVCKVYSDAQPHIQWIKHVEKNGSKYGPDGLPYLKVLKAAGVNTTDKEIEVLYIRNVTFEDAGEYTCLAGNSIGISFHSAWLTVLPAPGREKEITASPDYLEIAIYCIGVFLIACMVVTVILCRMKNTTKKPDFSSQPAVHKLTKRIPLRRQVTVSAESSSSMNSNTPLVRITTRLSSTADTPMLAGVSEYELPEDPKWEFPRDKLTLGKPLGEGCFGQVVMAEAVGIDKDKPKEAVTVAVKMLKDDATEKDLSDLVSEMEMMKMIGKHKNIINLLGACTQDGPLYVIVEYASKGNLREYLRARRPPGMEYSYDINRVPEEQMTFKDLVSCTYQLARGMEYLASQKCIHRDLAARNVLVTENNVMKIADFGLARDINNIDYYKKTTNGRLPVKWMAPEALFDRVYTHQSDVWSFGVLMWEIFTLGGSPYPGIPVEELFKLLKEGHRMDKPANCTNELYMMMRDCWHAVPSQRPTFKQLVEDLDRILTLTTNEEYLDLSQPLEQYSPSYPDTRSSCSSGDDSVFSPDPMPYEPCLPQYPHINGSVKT
Source text for FGFR1: (§1) The enzymes were purchased from Millipore or Invitrogen.
(§2) GraphPad prism3 was used to analyze the data. The IC50 values were derived by fitting the data to the equation for a sigmoidal dose-response with a variable slope. Y=Bottom+(Top−Bottom)/(1+10^((Log IC50−X)*HillSlope)) where X is the logarithm of concentration and Y is the response.
Source text for FGFR2: as §1, §2
Source text for FGFR3: as §1, §2
Source text for FGFR4: as §1, §2

Consider `C=CC(=O)Nc1cnn(CC(=O)NC)c1-c1cc2c(cn1)CN(c1c(F)c(OC)cc(OC)c1F)C(=O)C21CC1` [Example 20, N-(5-(2′-(2,6-difluoro-3,5-dimethoxyphenyl)-3′-oxo-2′,3′-dihydro-1′H-spiro[cyclopropane-1,4′-[2,7]naphthyridine]-6′-yl)-1-(2-(methylamino)-2-oxoethyl)-1H-pyrazol-4-yl)acrylamide], for which the IC50 on FGFR1 is above 200 nM. The IC50 on FGFR2 was above 200 nM. On FGFR3, the IC50 was above 200 nM. Also, at FGFR4, the FGFR1/FGFR4 is on record as above 50, the FGFR2/FGFR4 is recorded as above 100 and the FGFR3/FGFR4 is recorded as above 100.
Regarding `C=CC(=O)Nc1cnn(C[C@@H]2CCCO2)c1-c1cc2c(cn1)CN(c1c(F)c(OC)cc(OC)c1F)C(=O)C21CC1` [Example 31, (S)-N-(5-(2′-(2,6-difluoro-3,5-dimethoxyphenyl)-3′-oxo-2′,3′-dihydro-1′H-spiro[cyclopropane-1,4′-[2,7]naphthyridine]-6′-yl)-1-((tetrahydrofuran-2-yl)methyl)-1H-pyrazol-4-yl)acrylamide], the IC50 was above 200 nM at FGFR1, above 200 nM on FGFR2, above 200 nM at FGFR3 and below 10 nM at FGFR4 (read-out: FGFR4 IC50). The FGFR1/FGFR4 on FGFR4 is reported as above 100. Also, the FGFR2/FGFR4 at FGFR4 was above 100. In addition, the FGFR3/FGFR4 at FGFR4 is given as above 100.
